Experiment: Log P by HPLC on reversed phase columns (EEC directive 79/831 Annex V.A8)
Format: physicochemical
Outline: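 Reversed-phase HPLC per EEC 79/831 Annex V.A8, LC-UV with 10→95% acetonitrile linear gradient; eluent [a] 0.1% formic acid (acidic), [b] 0.001 M ammonium acetate (neutral), [c] 0.1% phosphoric acid (acidic). Calibrated with C3–C16 straight-chain alkan-2-ones, linear interpolation of retention times; multiple values joined by "+".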

Row | Compound | LogP (method [a]) | LogP (method marked [a])
1 | COC(=O)CNC(=O)c1sc(Cl)c(C#N)c1Br [1.0654] | 2.21^[a] | –
2 | CCOC(=O)C1(NC(=O)c2sc(Cl)c(C#N)c2Br)CC1 [1.0655] | 2.69^[a] | –
3 | COC(=O)C1(NC(=O)c2sc(Cl)c(C#N)c2Br)CC1 [1.0656] | 2.34^[a] | –
4 | COC(=O)C(C)(C)NC(=O)c1sc(Cl)c(C#N)c1Br [1.0657] | 2.83^[a] | –
5 | CCOC(=O)C(NC(=O)c1sc(Cl)c(C#N)c1Br)C(C)C (stereo not drawn) [1.0658] | – | 3.83^[a]
6 | COC(=O)C(NC(=O)c1sc(Cl)c(C#N)c1Br)C1CC1 (stereo not drawn) [1.0659] | – | 3.00^[a]
7 | CCOC(=O)C(Cc1ccccc1)NC(=O)c1sc(Cl)c(C#N)c1Br (stereo not drawn) [1.0660] | – | 4.09^[a]
8 | COC(=O)C1(NC(=O)c2sc(Cl)c(C#N)c2Br)CCC1 [1.0661] | – | 2.87^[a]
9 | CCOC(=O)C1(NC(=O)c2sc(Cl)c(C#N)c2Br)CCC1 [1.0662] | – | 3.28^[a]
10 | N#CCNC(=O)c1sc(Cl)c(C#N)c1Br [1.0663] | – | 2.03^[a]
11 | CCOC(=O)CNC(=O)c1sc(C#N)c(Cl)c1Br [1.0664] | – | 2.64^[a]
12 | COC(=O)CNC(=O)c1sc(C#N)c(Cl)c1Br [1.0665] | – | 2.25^[a]
13 | CCOC(=O)C1(NC(=O)c2sc(C#N)c(Cl)c2Br)CC1 [1.0666] | – | 2.76^[a]
14 | COC(=O)C1(NC(=O)c2sc(C#N)c(Cl)c2Br)CC1 [1.0667] | – | 2.42^[a]
15 | COC(=O)C(C)(C)NC(=O)c1sc(C#N)c(Cl)c1Br [1.0668] | – | 2.90^[a]
16 | CCOC(=O)C(NC(=O)c1sc(C#N)c(Cl)c1Br)C(C)C (stereo not drawn) [1.0669] | – | 3.90^[a]
17 | COC(=O)C(NC(=O)c1sc(C#N)c(Cl)c1Br)C1CC1 (stereo not drawn) [1.0670] | – | 3.07^[a]
18 | CCOC(=O)C(Cc1ccccc1)NC(=O)c1sc(C#N)c(Cl)c1Br (stereo not drawn) [1.0671] | – | 4.14^[a]
19 | COC(=O)C1(NC(=O)c2sc(C#N)c(Cl)c2Br)CCC1 [1.0672] | – | 2.96^[a]
20 | CCOC(=O)C1(NC(=O)c2sc(Br)c(C#N)c2Cl)CCC1 [1.0673] | – | 3.30^[a]
21 | COC(=O)C1(NC(=O)c2sc(Br)c(C#N)c2Cl)CCC1 [1.0674] | – | 2.89^[a]
22 | CCOC(=O)C(Cc1ccccc1)NC(=O)c1sc(Br)c(C#N)c1Cl (stereo not drawn) [1.0675] | – | 4.06^[a]
23 | COC(=O)C(NC(=O)c1sc(Br)c(C#N)c1Cl)C1CC1 (stereo not drawn) [1.0676] | – | 2.99^[a]
24 | O=C(CNC(=O)c1sc(Br)c(Br)c1Cl)OC1CCOC1 (stereo not drawn) [1.0677] | – | 2.84^[a]
25 | O=C(CNC(=O)c1sc(Br)c(Br)c1F)OC1CCOC1 (stereo not drawn) [1.0678] | – | 2.53^[a]

Row | Compound | LogP (method [a]) | LogP (method marked [a])
26 | Cc1c(C(=O)NCC(=O)OC2CCOC2)sc(C#N)c1Br (stereo not drawn) [1.0679] | – | 2.12^[a]
27 | COC(=O)C1(NC(=O)c2sc(C#N)c(Br)c2C)CCC1 [1.0680] | – | 2.71^[a]
28 | COC(=O)CNC(=O)c1sc(Cl)c(Cl)c1C#N [1.0681] | – | 2.17^[a]
29 | COC(=O)C1(NC(=O)c2sc(Cl)c(Cl)c2C#N)CC1 [1.0682] | – | 2.33^[a]
30 | CCOC(=O)C1(NC(=O)c2sc(C#N)c(Cl)c2Br)CCC1 [1.0683] | – | 3.34^[a]
31 | COC(=O)C(C)(C)NC(=O)c1sc(Cl)c(Cl)c1C#N [1.0684] | – | 2.73^[a]
32 | CCOC(=O)C(Cc1ccccc1)NC(=O)c1sc(Cl)c(Cl)c1C#N (stereo not drawn) [1.0685] | – | 3.98^[a]
33 | COC(=O)C1(NC(=O)c2sc(Cl)c(Cl)c2C#N)CCC1 [1.0686] | – | 2.79^[a]
34 | CCOC(=O)C1(NC(=O)c2sc(Cl)c(Cl)c2C#N)CCC1 [1.0687] | – | 3.16^[a]
35 | N#CCNC(=O)c1sc(Cl)c(Cl)c1C#N [1.0688] | – | 2.04^[a]
36 | CCOC(=O)CNC(=O)c1sc(Br)c(C#N)c1Cl [1.0689] | – | 2.57^[a]
37 | COC(=O)CNC(=O)c1sc(Br)c(C#N)c1Cl [1.0690] | – | 2.19^[a]
38 | CCOC(=O)C1(NC(=O)c2sc(Br)c(C#N)c2Cl)CC1 [1.0691] | – | 2.71^[a]
39 | COC(=O)C1(NC(=O)c2sc(Br)c(C#N)c2Cl)CC1 [1.0692] | – | 2.37^[a]
40 | COC(=O)C(C)(C)NC(=O)c1sc(Br)c(C#N)c1Cl [1.0693] | – | 2.84^[a]
41 | CCOC(=O)C(NC(=O)c1sc(Br)c(C#N)c1Cl)C(C)C (stereo not drawn) [1.0694] | – | 3.83^[a]
42 | COC(=O)C(NC(=O)c1sc(Cl)c(Cl)c1C#N)C1CC1 (stereo not drawn) [1.0695] | – | 2.89^[a]
43 | CCOC(=O)CNC(=O)c1sc(F)c(Br)c1Br [1.0697] | – | 3.01^[a]
44 | COC(=O)CNC(=O)c1sc(F)c(Br)c1Br [1.0698] | – | 2.60^[a]
45 | O=C(NC1(C(=O)O)CC1)c1cc(Br)c(C(F)(F)F)s1 [1.0700] | – | 2.44^[a]
46 | CCOC(=O)C(C)(C)NC(=O)c1sc(Cl)c(Br)c1Br [1.0701] | – | 4.30^[a]
47 | O=C(NC1(C(=O)O)CC1)c1sc(Cl)c(Br)c1F [1.0702] | – | 2.15^[a]
48 | O=C(NC1(C(=O)O)CC1)c1sc(Br)c(Cl)c1F [1.0703] | – | 2.14^[a]
49 | CCCOC(=O)C1(NC(=O)c2sc(Br)c(Cl)c2C)CC1 [1.0704] | – | 3.62^[a]
50 | Cc1c(C(=O)NC2(C(=O)OC3CCC3)CCC2)sc(Br)c1Cl [1.0705] | – | 4.33^[a]

Row | Compound | LogP (method [a]) | LogP (method marked [a])
51 | CCOC(=O)C1(NC(=O)c2sc(F)c(Br)c2Br)CC1 [1.0706] | – | 3.17^[a]
52 | COC(=O)C1(NC(=O)c2sc(F)c(Br)c2Br)CC1 [1.0707] | – | 2.76^[a]
53 | COC(=O)C(C)(C)NC(=O)c1sc(F)c(Br)c1Br [1.0708] | – | 3.38^[a]
54 | CCOC(=O)C(NC(=O)c1sc(F)c(Br)c1Br)C(C)C (stereo not drawn) [1.0709] | – | 4.48^[a]
55 | COC(=O)C(NC(=O)c1sc(F)c(Br)c1Br)C1CC1 (stereo not drawn) [1.0710] | – | 3.55^[a]
56 | CCOC(=O)C(Cc1ccccc1)NC(=O)c1sc(F)c(Br)c1Br (stereo not drawn) [1.0711] | – | 4.67^[a]
57 | COC(=O)C1(NC(=O)c2sc(F)c(Br)c2Br)CCC1 [1.0712] | – | 3.41^[a]
58 | CCOC(=O)C1(NC(=O)c2sc(F)c(Br)c2Br)CCC1 [1.0713] | – | 3.88^[a]
59 | N#CCNC(=O)c1sc(F)c(Br)c1Br [1.0714] | – | 2.39^[a]
60 | CCOC(=O)CNC(=O)c1cc(Br)c(C(F)(F)F)s1 [1.0715] | – | 3.00^[a]
61 | COC(=O)CNC(=O)c1cc(Br)c(C(F)(F)F)s1 [1.0716] | – | 2.65^[a]
62 | COC(=O)C1(NC(=O)c2cc(Br)c(C(F)(F)F)s2)CC1 [1.0717] | – | 2.87^[a]
63 | COC(=O)C(C)(C)NC(=O)c1cc(Br)c(C(F)(F)F)s1 [1.0718] | – | 3.23^[a]
64 | CCOC(=O)C(NC(=O)c1cc(Br)c(C(F)(F)F)s1)C(C)C (stereo not drawn) [1.0719] | – | 4.18^[a]
65 | COC(=O)C(NC(=O)c1cc(Br)c(C(F)(F)F)s1)C1CC1 (stereo not drawn) [1.0720] | – | 3.41^[a]
66 | CCOC(=O)C(Cc1ccccc1)NC(=O)c1cc(Br)c(C(F)(F)F)s1 (stereo not drawn) [1.0721] | – | 4.36^[a]
67 | COC(=O)C1(NC(=O)c2cc(Br)c(C(F)(F)F)s2)CCC1 [1.0722] | – | 3.33^[a]
68 | CCOC(=O)C1(NC(=O)c2cc(Br)c(C(F)(F)F)s2)CCC1 [1.0723] | – | 3.70^[a]
69 | N#CCNC(=O)c1cc(Br)c(C(F)(F)F)s1 [1.0724] | – | 2.61^[a]
70 | Cc1c(C(=O)NC2(C(=O)OC3CCC3)CCC2)sc(Cl)c1Br [1.0725] | – | 4.37^[a]
71 | CCOC(=O)C1(NC(=O)c2cc(Br)c(C(F)(F)F)s2)CC1 [1.0726] | – | 3.22^[a]
72 | CCOC(=O)C1(NC(=O)c2sc(Cl)c(Cl)c2Br)CSC1 [1.0727] | – | 3.95^[a]
73 | CCOC(=O)C1(NC(=O)c2sc(Br)c(Br)c2Cl)CSC1 [1.0728] | – | 3.97^[a]
74 | COC(=O)[C@H](CCSC)NC(=O)c1sc(C#N)c(Br)c1C [1.0729] | – | 3.03^[a]
75 | COC(=O)[C@H](CCSC)NC(=O)c1sc(C#N)c(Cl)c1C [1.0730] | – | 2.97^[a]

Row | Compound | LogP (method [a]) | LogP (method marked [a])
76 | CCOC(=O)C(CO)NC(=O)c1sc(C#N)c(Br)c1Br (stereo not drawn) [1.0731] | – | 2.62^[a]
77 | CCOC(=O)C(CCSC)NC(=O)c1sc(C#N)c(Br)c1Br (stereo not drawn) [1.0732] | – | 3.81^[a]
78 | COC(=O)C(CCSC)NC(=O)c1sc(C#N)c(Br)c1Br (stereo not drawn) [1.0733] | – | 3.23^[a]
79 | COC(=O)[C@H](CCSC)NC(=O)c1sc(C#N)c(Br)c1Br [1.0734] | – | 3.40^[a]
80 | COC(=O)C(CCSC)NC(=O)c1sc(Cl)c(Br)c1C (stereo not drawn) [1.0735] | – | 3.63^[a]
81 | CCOC(=O)[C@H](CCSC)NC(=O)c1sc(Cl)c(Br)c1C [1.0736] | – | 4.02^[a]
82 | CNC(=O)CNC(=O)c1sc(Br)c(Br)c1F [1.0737] | – | 1.81^[a]
83 | CNC(=O)CNC(=O)c1sc(Cl)c(Cl)c1Br [1.0738] | – | 2.08^[a]
84 | CCOC(=O)CNC(=O)c1sc(C#N)c(Br)c1Br [1.0739] | – | 2.75^[a]
85 | CCOC(=O)C1(NC(=O)c2sc(C#N)c(Br)c2Br)CC1 [1.0740] | – | 3.02^[a]
86 | CCOC(=O)C(C#N)NC(=O)c1sc(Br)c(Br)c1Cl (stereo not drawn) [1.0741] | – | 3.34^[a]
87 | CCOC(=O)C(C#N)NC(=O)c1sc(C#N)c(Br)c1C (stereo not drawn) [1.0742] | – | 2.66^[a]
88 | CCOC(=O)C(C#N)NC(=O)c1sc(Cl)c(Cl)c1Br (stereo not drawn) [1.0743] | – | 3.35^[a]
89 | CCOC(=O)C(C#N)NC(=O)c1sc(Cl)c(Br)c1Br (stereo not drawn) [1.0744] | – | 3.38^[a]
90 | N#CCNC(=O)c1sc(Cl)c(Cl)c1C(F)F [1.0745] | – | 2.50^[a]
91 | CCOC(=O)C(C)(C)NC(=O)c1sc(Cl)c(Cl)c1C(F)F [1.0746] | – | 3.55^[a]
92 | COC(=O)C(NC(=O)c1sc(Cl)c(Cl)c1C(F)F)C(=O)OC [1.0748] | – | 3.00^[a]
93 | CCOC(=O)CN(OC)C(=O)c1sc(C#N)c(Br)c1C [1.0749] | – | 3.23^[a]
94 | COC(=O)[C@H](CCSC)NC(=O)c1sc(Br)c(Br)c1Cl [1.0750] | – | 4.04^[a]
95 | COC(=O)C(CCSC)NC(=O)c1sc(C#N)c(Br)c1C (stereo not drawn) [1.0751] | – | 3.06^[a]
96 | CCOC(=O)C(CSC)NC(=O)c1sc(C#N)c(Cl)c1Cl (stereo not drawn) [1.0752] | – | 3.54^[a]
97 | CCOC(=O)C(CSC)NC(=O)c1sc(Cl)c(Br)c1C (stereo not drawn) [1.0753] | – | 3.97^[a]
98 | CCOC(=O)C(CSC)NC(=O)c1sc(Cl)c(Cl)c1C#N (stereo not drawn) [1.0754] | – | 3.37^[a]
99 | CCOC(=O)C(CSC)NC(=O)c1sc(Br)c(Br)c1C#N (stereo not drawn) [1.0755] | – | 3.40^[a]
